From patent publication US9333280B2, “Stabilized enzyme compositions” (Teleflex Medical Incorporated, priority 2009, dated 2016)

Tested on: Staphylococcus aureus ATCC 33591
Assay: Adherence of bacteria on catheter segments
Assay type: cell-based
Details: against the tested organisms
Method: In addition to fibrinolytic activity, antimicrobial activity of the 1% LMW-DexS (8 kDa) treated catheters was evaluated. In this test, adherence of gram positive bacteria Staphylococcus aureus ATCC 33591, on the catheter segments having immobilized enzyme uPA stabilized with 1% LMW-DexS (8 kDa), along with the antimicrobial agents such as gentian violet (0.6%) and chlorhexidine dodecanoate was compared to similarly treated catheter segments but without the LMW-DexS (8 kDa) stabilized enzyme.

Structure (SMILES) | antimicrobial activity after attachment of LMW-DexS (8 kDa) stabilized urokinase
CN(C)c1ccc(C(=C2C=CC(=[N+](C)C)C=C2)c2ccc(N(C)C)cc2)cc1 [gentian violet] | not compromised
CCCCCCCCCCCC(=O)O.NC(=NCCCCCCN=C(N)N=C(N)Nc1ccc(Cl)cc1)N=C(N)Nc1ccc(Cl)cc1 [chlorhexidine dodecanoate] | not compromised
